Active and inactive are the calls of the source. No cut-off for these calls is given here.
Assays:
U-251 [1] = assay: Inhibition of cell proliferation of human U251 cells assessed as cell viability after 72 hrs by sulforhodamine B assay; type: functional, cell-based; details: for IC50: U-251, 72 h
U-251 [2] = assay: Inhibition of cell proliferation of human U251 cells assessed as cell viability at 100 uM after 72 hrs by sulforhodamine B assay; type: functional; details: U-251, 72 h, read-out: Activity
C6 [3] = assay: Inhibition of cell proliferation of rat C6 cells assessed as cell viability after 72 hrs by sulforhodamine B assay; type: functional, cell-based; details: for IC50: C6, 72 h
C6 [4] = assay: Inhibition of cell proliferation of rat C6 cells assessed as cell viability at 100 uM after 72 hrs by sulforhodamine B assay; type: functional; details: C6, 72 h, read-out: Activity
U-87MG ATCC = assay: Inhibition of cell proliferation of human U87MG cells assessed as cell viability after 72 hrs by sulforhodamine B assay; type: functional, cell-based

Row | SMILES | IC50 (U-251 [1]) [µM] | viability at 100 µM (U-251 [2]) [%] | IC50 (C6 [3]) [µM] | viability at 100 µM (C6 [4]) [%] | inhibition (U-251 [1]) | inhibition (C6 [3]) | inhibition (U-87MG ATCC)
1 | C=C[C@@](C)(O)CC/C=C(\CO)C(=O)OC[C@H]1O[C@@H](OC(=O)[C@]23CCC(C)(C)C[C@H]2C2=CC[C@@H]4[C@@]5(C)CC[C@H](O[C@@H]6O[C@H](CO[C@@H]7OC[C@H](O)[C@H](O)[C@H]7O[C@@H]7OC[C@@H](O)[C@H](O)[C@H]7O)[C@@H](O)[C@H](O)[C@H]6O)C(C)(C)[C@@H]5CC[C@@]4(C)[C@]2(C)C[C@H]3O)[C@H](O[C@@H]2O[C@@H](C)[C@H](O[C@@H]3OC[C@@H](O)[C@H](O[C@@H]4OC[C@@H](O)[C@H](O)[C@H]4O)[C@H]3O)[C@@H](O)[C@H]2O[C@@H]2O[C@H](CO)[C@H](O)[C@H](O)[C@H]2O)[C@@H](O)[C@@H]1O | 19.2 | 28.6 | 18.1 | – | – | – | –
2 | C[C@@H]1O[C@@H](OC[C@H]2O[C@@H](OC(=O)[C@]34CCC(C)(C)C[C@H]3C3=CC[C@@H]5[C@@]6(C)CC[C@H](O[C@@H]7O[C@H](CO[C@@H]8OC[C@H](O)[C@H](O)[C@H]8O[C@@H]8OC[C@@H](O)[C@H](O)[C@H]8O)[C@@H](O)[C@H](O)[C@H]7O)C(C)(C)[C@@H]6CC[C@@]5(C)[C@]3(C)CC4)[C@H](O[C@@H]3O[C@@H](C)[C@H](O[C@@H]4OC[C@@H](O)[C@H](O[C@@H]5OC[C@@H](O)[C@H](O)[C@H]5O)[C@H]4O)[C@@H](O)[C@H]3O)[C@@H](O)[C@@H]2O)[C@H](O)[C@H](O)[C@H]1O | – | 83.9 | – | 97.2 | inactive | inactive | inactive
3 | C[C@@H]1O[C@@H](O[C@H]2[C@H](OC(=O)[C@]34CCC(C)(C)C[C@H]3C3=CC[C@@H]5[C@@]6(C)CC[C@H](O[C@@H]7O[C@H](CO[C@@H]8OC[C@H](O)[C@H](O)[C@H]8O[C@@H]8OC[C@@H](O)[C@H](O)[C@H]8O)[C@@H](O)[C@H](O)[C@H]7O)C(C)(C)[C@@H]6CC[C@@]5(C)[C@]3(C)CC4)O[C@H](CO)[C@@H](O)[C@@H]2O)[C@H](O)[C@H](O)[C@H]1O[C@@H]1OC[C@@H](O)[C@H](O[C@@H]2OC[C@@H](O)[C@H](O)[C@H]2O)[C@H]1O | – | 91.8 | – | 62.7 | inactive | inactive | inactive
4 | O=C(CCc1ccc(O)c(O)c1)OCCc1ccc(O)c(O)c1 | 24.3 | 55 | 6.16 | – | – | – | –
5 | CC1(C)CC[C@]2(C(=O)O)[C@H](O)C[C@]3(C)C(=CC[C@@H]4[C@@]5(C)CC[C@H](O[C@@H]6O[C@H](CO[C@@H]7OC[C@H](O)[C@H](O)[C@H]7O[C@@H]7OC[C@@H](O)[C@H](O)[C@H]7O)[C@@H](O)[C@H](O)[C@H]6O)C(C)(C)[C@@H]5CC[C@]43C)[C@@H]2C1 | – | 88.8 | – | 86.2 | inactive | inactive | inactive
6 | CC(C)=CCC[C@@H](C)[C@H]1CC[C@]2(C)[C@@H]1[C@H](O)C[C@@H]1[C@@]3(C)CC[C@H](O)C(C)(C)[C@@H]3[C@@H](O)C[C@]12C | 117 | 49.4 | 49.7 | – | – | – | –
7 | C=CC(C)(O)CC/C=C(\CO)C(=O)O[C@H]1[C@H](OC[C@H]2O[C@@H](OC(=O)[C@]34CCC(C)(C)C[C@H]3C3=CC[C@@H]5[C@@]6(C)CC[C@H](O[C@@H]7O[C@H](CO[C@@H]8OC[C@H](O)[C@H](O)[C@H]8O[C@@H]8OC[C@@H](O)[C@H](O)[C@H]8O)[C@@H](O)[C@H](O)[C@H]7O)C(C)(C)[C@@H]6CC[C@@]5(C)[C@]3(C)C[C@H]4O)[C@H](O[C@@H]3O[C@@H](C)[C@H](O[C@@H]4OC[C@@H](O)[C@H](O[C@@H]5OC[C@@H](O)[C@H](O)[C@H]5O)[C@H]4O)[C@@H](O)[C@H]3O)[C@@H](O)[C@@H]2O)O[C@@H](C)[C@H](O)[C@H]1OC(=O)/C(C)=C/CC[C@@](C)(O)C=C (stereo partly drawn) | 43.1 | 29.2 | 30.3 | – | – | – | –
8 | C=C[C@@](C)(O)CC/C=C(\C)C(=O)O[C@H]1[C@H](OC[C@H]2O[C@@H](OC(=O)[C@]34CCC(C)(C)C[C@@H]3C3=CC[C@@H]5[C@@]6(C)CC[C@H](O[C@@H]7O[C@H](CO[C@@H]8OC[C@H](O)[C@H](O)[C@H]8O[C@@H]8OC[C@@H](O)[C@H](O)[C@H]8O)[C@@H](O)[C@H](O)[C@H]7O)C(C)(C)[C@@H]6CC[C@@]5(C)[C@]3(C)C[C@H]4O)[C@H](O[C@@H]3O[C@@H](C)[C@H](O[C@@H]4OC[C@@H](O)[C@H](O[C@@H]5OC[C@@H](O)[C@H](O)[C@H]5O)[C@H]4O)[C@@H](O)[C@H]3O)[C@@H](O)[C@@H]2O)O[C@@H](C)[C@H](O)[C@H]1OC(=O)/C(=C/CC[C@](C)(O)C=C)CO [GLEDITSIA SAPONIN C] | 46.8 | 34.9 | 17.6 | – | – | – | –
9 | O=c1c(O)c(-c2ccc(O)c(O)c2)oc2cc(O)cc(O)c12 [QUERCETIN] | 77.8 | 62.9 | 18.4 | – | – | – | –
10 | C=CC(C)(O)CC/C=C(\CO)C(=O)OC[C@H]1O[C@@H](OC(=O)[C@]23CCC(C)(C)C[C@H]2C2=CC[C@@H]4[C@@]5(C)CC[C@H](O[C@@H]6O[C@H](CO[C@@H]7OC[C@H](O)[C@H](O)[C@H]7O[C@@H]7OC[C@@H](O)[C@H](O)[C@H]7O)[C@@H](O)[C@H](O)[C@H]6O)C(C)(C)[C@@H]5CC[C@@]4(C)[C@]2(C)CC3)[C@H](O[C@@H]2O[C@@H](C)[C@H](O[C@@H]3OC[C@@H](O)[C@H](O[C@@H]4OC[C@@H](O)[C@H](O)[C@H]4O)[C@H]3O)[C@@H](O)[C@H]2O)[C@@H](O)[C@@H]1O (stereo partly drawn) | 44.5 | 32.9 | 31.7 | – | – | – | –
11 | CC(=O)Oc1ccc(CCOC(=O)CCc2ccc(OC(C)=O)c(OC(C)=O)c2)cc1OC(C)=O | 37.2 | 43.5 | 12.8 | – | – | – | –
12 | C/C=C(\C)C(=O)O[C@H]1[C@H](O)[C@]2(CO)[C@H](O)C[C@]3(C)C(=CC[C@@H]4[C@@]5(C)CC[C@H](O[C@@H]6O[C@H](C(=O)O)[C@@H](O[C@@H]7O[C@H](CO)[C@@H](O)[C@H](O)[C@H]7O)[C@H](O)[C@H]6O[C@@H]6O[C@H](CO)[C@@H](O)[C@H](O)[C@H]6O)[C@@](C)(CO)[C@@H]5CC[C@]43C)[C@@H]2CC1(C)C | – | 92.7 | – | 89.6 | – | – | –
13 | CC(C)=CCC[C@](C)(O[C@@H]1O[C@H](CO)[C@@H](O)[C@H](O)[C@H]1O)[C@H]1CC[C@]2(C)[C@@H]1[C@H](O)C[C@@H]1[C@@]3(C)CC[C@H](O[C@@H]4O[C@H](CO)[C@@H](O)[C@H](O)[C@H]4O)C(C)(C)[C@@H]3[C@@H](O)C[C@]12C | – | 92.5 | – | 65.6 | – | – | –

More lines, main results first:

Row | IC50 (U-251 [1]) [µM] | SMILES | viability at 100 µM (U-251 [2]) [%] | IC50 (C6 [3]) [µM] | viability at 100 µM (C6 [4]) [%] | inhibition (U-251 [1]) | inhibition (C6 [3]) | inhibition (U-87MG ATCC)
14 | 80.4 | C/C=C(\C)C(=O)O[C@H]1[C@H](O)[C@]2(COC(C)=O)[C@H](O)C[C@]3(C)C(=CC[C@@H]4[C@@]5(C)CC[C@H](O[C@@H]6O[C@H](C(=O)O)[C@@H](O[C@@H]7O[C@H](CO)[C@@H](O)[C@H](O)[C@H]7O)[C@H](O)[C@H]6O[C@@H]6O[C@H](CO)[C@@H](O)[C@H](O)[C@H]6O)[C@](C)(CO)[C@@H]5CC[C@]43C)[C@@H]2CC1(C)C [ISOESCIN IA] | 61.1 | 54.5 | – | – | – | –
15 | 68.9 | C/C=C(/C)C(=O)O[C@H]1[C@H](O)[C@]2(COC(C)=O)[C@H](O)C[C@]3(C)C(=CC[C@@H]4[C@@]5(C)CC[C@H](O[C@@H]6O[C@H](C(=O)O)[C@@H](O[C@@H]7O[C@H](CO)[C@@H](O)[C@H](O)[C@H]7O)[C@H](O)[C@H]6O[C@@H]6O[C@H](CO)[C@@H](O)[C@H](O)[C@H]6O)[C@](C)(CO)[C@@H]5CC[C@]43C)[C@@H]2CC1(C)C [ISOESCIN IB] | 29.7 | 77.8 | – | – | – | –
16 | 15.2 | C=CC(C)(O)CC/C=C(\CO)C(=O)O[C@H]1[C@H](O)[C@@H](COC(=O)/C(C)=C/CC[C@](C)(O)C=C)O[C@@H](OC(=O)[C@]23CCC(C)(C)C[C@H]2C2=CC[C@@H]4[C@@]5(C)CC[C@H](O[C@@H]6O[C@H](CO[C@@H]7OC[C@H](O)[C@H](O)[C@H]7O[C@@H]7OC[C@@H](O)[C@H](O)[C@H]7O)[C@@H](O)[C@H](O)[C@H]6O)C(C)(C)[C@@H]5CC[C@@]4(C)[C@]2(C)CC3)[C@@H]1O[C@@H]1O[C@@H](C)[C@H](O[C@@H]2OC[C@@H](O)[C@H](O[C@@H]3OC[C@@H](O)[C@H](O)[C@H]3O)[C@H]2O)[C@@H](O)[C@H]1O (stereo partly drawn) | 9.84 | 13.6 | – | – | – | –
17 | 26.8 | CC(=O)Oc1cc(CCOC(=O)CCc2ccc(O)c(OC(C)=O)c2)ccc1O | 39.8 | 8.47 | – | – | – | –
18 | 48.4 | C/C=C(\C)C(=O)O[C@H]1[C@H](O)[C@]2(COC(C)=O)[C@H](O)C[C@]3(C)C(=CC[C@@H]4[C@@]5(C)CC[C@H](O[C@@H]6O[C@H](C(=O)OC)[C@@H](O[C@@H]7O[C@H](CO)[C@@H](O)[C@H](O)[C@H]7O)[C@H](O)[C@H]6O[C@@H]6O[C@H](CO)[C@@H](O)[C@H](O)[C@H]6O)[C@](C)(CO)[C@@H]5CC[C@]43C)[C@@H]2CC1(C)C | 26.2 | 60.7 | – | – | – | –
